Values quoted from earlier work as cited in patent publication US20260097052A1, “NOVEL ORAL CANNABINOID FORMULATIONS” (Esolate Pharmaceuticals Ltd, priority 2023, published 2026).

Settings: humans

Structure (SMILES): C=C(C)[C@@H]1CCC(C)=C[C@H]1c1c(O)cc(CCCCC)cc1O [CBD, cannabidiol]
- Oral bioavailability: approximately 6%
